These results are taken from PubChem BioAssay AID1259408 (Genetic Toxicology Data Bank (GENE-TOX), 2018).

Activity calls are given as the source filed them. The rule behind the calls is not given here.

The test system of the data set is GENE-TOX genotoxicity assays, various organisms and cells. In words: GENE-TOX mutagenicity studies. Conditions: for call: Assay Type: In vivo carcinogenicity studies.
[1] abbreviates: Species/Cell Type: Escherichia coli polA (W3119 vs P3478), Assay Type: Rec-assay, DNA effects (bacterial DNA repair), Assay Code: RE1+, Evaluation Type: Evaluation A (Pre-1980).
[2] abbreviates: Species/Cell Type: Mouse lymphoma (L5178Y) cells, Assay Type: Forward gene mutation at the thymidine kinase (TK) locus, chromosome aberrations, Assay Code: L51+, Evaluation Type: Evaluation A (Pre-1980).
Where [3] appears, read: Species/Cell Type: Nonhuman, Assay Type: Sister-chromatid exchange (SCE) in vitro, Assay Code: SC2+, Evaluation Type: Evaluation B (Post-1980).
Where [4] appears, read: Species/Cell Type: Nonhuman, Assay Type: Sister-chromatid exchange (SCE) in vitro, Assay Code: SC2+D, Dose Response: With dose response, Evaluation Type: Evaluation A (Pre-1980).
The mark [5] stands for this setting: Species/Cell Type: Saccharomyces cerevisiae, Assay Type: Mitotic recombination or gene conversion, Assay Code: YEC+, Evaluation Type: Evaluation A (Pre-1980).
Where [6] appears, read: Species/Cell Type: Salmonella typhimurium (one or more of the five standard strains: TA98, TA100, TA1535, TA1537, and TA1538), Assay Type: Histidine reverse gene mutation, Ames assay, Assay Code: SAL+, Evaluation Type: Evaluation A (Pre-1980).
[7] abbreviates: Species/Cell Type: Nonhuman, Assay Code: CCG+, Evaluation Type: Evaluation A (Pre-1980).
Where [8] appears, read: Species/Cell Type: Salmonella typhimurium (one or more of the five standard strains: TA98, TA100, TA1535, TA1537, and TA1538), Assay Type: Histidine reverse gene mutation, Ames assay, Assay Code: SAL-, Evaluation Type: Evaluation A (Pre-1980).
[9] abbreviates: Species/Cell Type: Salmonella typhimurium (one or more of the five standard strains: TA98, TA100, TA1535, TA1537, and TA1538), Assay Type: Histidine reverse gene mutation, Ames assay, Assay Code: SALT, Evaluation Type: Evaluation A (Pre-1980).
Setting [10] is: Species/Cell Type: Drosophila melanogaster, Assay Type: Sex-linked recessive lethal gene mutation, Assay Code: SRL+, Evaluation Type: Evaluation A (Pre-1980).
[11] abbreviates: Species/Cell Type: Human diploid fibroblasts, Assay Type: Unscheduled DNA synthesis (UDS) in vitro, DNA effects, Assay Code: UDH+, Evaluation Type: Evaluation A (Pre-1980).
Where [12] appears, read: Species/Cell Type: Mammalian polychromatic erythrocytes, Assay Type: Micronucleus test, chromosome aberrations, Assay Code: MNTT, Evaluation Type: Evaluation A (Pre-1980).
[13] abbreviates: Species/Cell Type: Mouse, Sex: Male, Assay Type: Sperm morphology, Assay Code: SPI-, Evaluation Type: Evaluation A (Pre-1980).
The mark [14] stands for this setting: Species/Cell Type: Syrian hamster embryo (SA7/SHE) cells, Assay Type: Cell transformation, viral enhanced, Assay Code: CT7+, Evaluation Type: Evaluation A (Pre-1980).

In the case of `Nc1ccc2cc3ccc(N)cc3nc2c1`, the mutagenic call by setting is: (Species/Cell Type: Drosophila melanogaster, Assay Type: Aneuploidy, sex chromosome gain, chromosome aberrations, Assay Code: DAGT, Evaluation Type: Evaluation A (Pre-1980)) “no conclusion”; (Species/Cell Type: Drosophila melanogaster, Assay Type: Aneuploidy, whole sex chromosome loss, chromosome aberrations, Assay Code: DAC+F, Evaluation Type: Evaluation A (Pre-1980)) “active; positive”; under setting [1], “active; positive”; (Species/Cell Type: Human lymphocytes, Assay Type: Sister-chromatid exchange (SCE) in vitro, Assay Code: SCL+, Evaluation Type: Evaluation B (Post-1980)) “active; positive”; (Species/Cell Type: Human, Assay Type: Sister-chromatid exchange (SCE) in vitro, Assay Code: SC1+, Evaluation Type: Evaluation B (Post-1980)) “active; positive”; under setting [2], “active; positive”. For the same compound, the mutagenic call was “active; positive” under setting [3]; “active; positive” under setting [4]; “inactive; negative” (Species/Cell Type: Nonhuman, Assay Type: Sister-chromatid exchange (SCE) in vivo, Assay Code: SC3-, Evaluation Type: Evaluation A (Pre-1980)); “no conclusion” (Species/Cell Type: Nonhuman, Assay Type: Sister-chromatid exchange (SCE) in vivo, Assay Code: SC3T, Evaluation Type: Evaluation B (Post-1980)); “active; positive” under setting [5]; “no conclusion” (Species/Cell Type: Saccharomyces cerevisiae, Assay Type: Mitotic recombination or gene conversion, Assay Code: YECT, Evaluation Type: Evaluation A (Pre-1980)). For the same compound, under setting [6], the mutagenic call was “active; positive”. Also, where the note is “Species/Cell Type: Nonhuman, Assay Code: CCGT, Evaluation Type: Evaluation A (Pre-1980)”, the call is “no conclusion”.
Turning to `O=C(Nc1cc(Cl)cc(Cl)c1O)c1c(O)c(Cl)cc(Cl)c1Cl`, where the note is “Species/Cell Type: Mammalian polychromatic erythrocytes, Assay Type: Micronucleus test, chromosome aberrations, Assay Code: MNTT, Evaluation Type: Evaluation B (Post-1980)”, the mutagenic call is given as “no conclusion”.
With `COc1ccc(OC)c(N=Nc2c(O)ccc3ccccc23)c1`, under setting [7], the call is “active; positive”. Besides, under setting [8], the mutagenic call was “inactive; negative”.
Turning to `CC(=O)ON(C)c1ccc(N=Nc2ccccc2)cc1`, the mutagenic call under setting [6] was “active; positive”.
Regarding `COc1ccc2c(ccc3c4c(ccc32)C(=O)CC4)c1`, the mutagenic call under setting [9] was “no conclusion”.
Still for that read-out and setting: the entry for `Nc1ccc(-c2nc(N(CCO)CCO)c3ccccc3n2)s1` is “no conclusion”.
Regarding `CCN(O)CC`, the mutagenic call reads like this: under setting [10], “active; positive”; under setting [11], “active; positive”; under setting [12], “no conclusion”; (Species/Cell Type: Rodents, Sex: Male, Assay Type: Dominant lethal test, Assay Code: DLTT, Evaluation Type: Evaluation A (Pre-1980)) “no conclusion”.
For the compound `CC1CC(C)CN(N=O)C1` (configuration not stated), the mutagenic call under setting [10] was “active; positive”; the mutagenic call (Species/Cell Type: Saccharomyces cerevisiae, Assay Type: Forward gene mutation, Assay Code: YEF+*, Activation: With metabolic activation, Evaluation Type: Evaluation A (Pre-1980)) was “active; positive”; the mutagenic call (Species/Cell Type: Saccharomyces cerevisiae, Assay Type: Reverse gene mutation, Assay Code: YER+*, Activation: With metabolic activation, Evaluation Type: Evaluation A (Pre-1980)) is “active; positive”; the mutagenic call under setting [9] was “no conclusion”.
For the compound `CCN(CCO)CCCNc1c2ccc(Cl)cc2nc2ccc(OC)nc12`, the mutagenic call (Species/Cell Type: Chinese hamster ovary (CHO) cells, Assay Type: Forward gene mutation at the HPRT locus, Assay Code: CHOT, Evaluation Type: Evaluation B (Post-1980)) was “no conclusion”.
On to `Cc1cc(Cl)cc2c1C(=O)/C(=C1\Sc3cc(Cl)cc(C)c3C1=O)S2`, for which the mutagenic call under setting [8] was “inactive; negative”.
Consider `O=NN(CCCl)C(=O)NC(NC(=O)N(CCCl)N=O)(c1ccccc1)c1ccccc1`, for which the mutagenic call under setting [10] was “active; positive”.
For `O=[N+]([O-])c1cccc2cc[nH]c12`, the mutagenic call under setting [6] is “active; positive”.
With `CC(C)=CC1C(C(=O)OCc2coc(Cc3ccccc3)c2)C1(C)C` (configuration not stated), the mutagenic call is, setting by setting: (Species/Cell Type: Human diploid fibroblasts, Assay Type: Unscheduled DNA synthesis (UDS) in vitro, DNA effects, Assay Code: UDH-, Evaluation Type: Evaluation A (Pre-1980)) “inactive; negative”; (Species/Cell Type: Saccharomyces cerevisiae, Assay Type: Mitotic recombination or gene conversion, Assay Code: YEH-, Evaluation Type: Evaluation A (Pre-1980)) “inactive; negative”.
In the case of `CN(C)C(=S)SC(=S)N(C)C`, the mutagenic call (Species/Cell Type: Mammalian polychromatic erythrocytes, Assay Type: Micronucleus test, chromosome aberrations, Assay Code: MNT+U, Dose Response: Unconfirmed positive response, Evaluation Type: Evaluation B (Post-1980)) was “active; positive”.
In the case of `CCCCCc1cc(O)cc(O)c1`, the mutagenic call (Species/Cell Type: Human lymphocytes, Assay Type: Micronucleus test in vitro, chromosome aberrations, Assay Code: MN7+, Evaluation Type: Evaluation A (Pre-1980)) is “active; positive”.
For `N.N.[Cl-].[Cl-].[Cl-].[Cl-].[Pt+4]`, under setting [3], the mutagenic call is “active; positive”.
For the compound `O=C1CCO1`, the mutagenic call by setting is: (Species/Cell Type: Allium cepa, Assay Type: Chromosome aberrations, Assay Code: ALC+, Evaluation Type: Evaluation A (Pre-1980)) “active; positive”; (Species/Cell Type: Chinese hamster ovary (CHO) cells, Assay Type: Forward gene mutation at the HPRT locus, Assay Code: CHO+, Evaluation Type: Evaluation B (Post-1980)) “active; positive”; under setting [10], “active; positive”; (Species/Cell Type: Drosophila melanogaster, Sex: Male, Assay Type: Heritable translocation test, chromosome aberrations, Assay Code: DHT+, Evaluation Type: Evaluation A (Pre-1980)) “active; positive”; under setting [1], “active; positive”; under setting [11], “active; positive”. In addition, the mutagenic call runs as follows: under setting [12], “no conclusion”; under setting [2], “active; positive”; under setting [13], “inactive; negative”; (Species/Cell Type: Neurospora crassa, Assay Type: Forward gene mutation, Assay Code: NEF+, Evaluation Type: Evaluation A (Pre-1980)) “active; positive”; (Species/Cell Type: Neurospora crassa, Assay Type: Reverse gene mutation, Assay Code: NER+, Evaluation Type: Evaluation A (Pre-1980)) “active; positive”; under setting [4], “active; positive”. In addition, the mutagenic call by setting is: under setting [5], “active; positive”; (Species/Cell Type: Saccharomyces cerevisiae, Assay Type: Mitotic recombination or gene conversion, Assay Code: YEH+, Evaluation Type: Evaluation A (Pre-1980)) “active; positive”; (Species/Cell Type: Saccharomyces cerevisiae, Assay Type: Reverse gene mutation, Assay Code: YER+, Evaluation Type: Evaluation A (Pre-1980)) “active; positive”; under setting [6], “active; positive”; (Species/Cell Type: Salmonella typhimurium, Assay Type: Forward and reverse gene mutation, host-mediated assay, Assay Code: HMA+, Evaluation Type: Evaluation A (Pre-1980)) “active; positive”; under setting [14], “active; positive”. The mutagenic call was “active; positive” (Species/Cell Type: Syrian hamster embryo (SHE) cells, Assay Type: Cell transformation, focus assay, Assay Code: CTF+, Evaluation Type: Evaluation A (Pre-1980)) and “active; positive” (Species/Cell Type: Vicia faba, Assay Type: Chromosome aberrations, Assay Code: VIC+, Evaluation Type: Evaluation A (Pre-1980)). For the same compound, under setting [7], the call is “active; positive”.
`CN(C)N`: the mutagenic call (Species/Cell Type: Human diploid fibroblasts, Assay Type: Unscheduled DNA synthesis (UDS) in vitro, DNA effects, Assay Code: UDH-*, Activation: With metabolic activation, Evaluation Type: Evaluation A (Pre-1980)) was “inactive; negative”; the mutagenic call under setting [12] is given as “no conclusion”; the mutagenic call (Species/Cell Type: Mouse lymphoma (L5178Y) cells, Assay Type: Forward gene mutation at the thymidine kinase (TK) locus, chromosome aberrations, Assay Code: L51-*, Activation: With metabolic activation, Evaluation Type: Evaluation A (Pre-1980)) is “inactive; negative”; the mutagenic call under setting [13] is “inactive; negative”; the mutagenic call (Species/Cell Type: Rodents, Sex: Male, Assay Type: Dominant lethal test, Assay Code: DLT-, Evaluation Type: Evaluation A (Pre-1980)) is “inactive; negative”; the mutagenic call (Species/Cell Type: Saccharomyces cerevisiae, Assay Type: Mitotic recombination or gene conversion, Assay Code: YEC-, Evaluation Type: Evaluation A (Pre-1980)) is “inactive; negative”. Moreover, the mutagenic call was “active; positive” (Species/Cell Type: Salmonella typhimurium (one or more of the five standard strains: TA98, TA100, TA1535, TA1537, and TA1538), Assay Type: Histidine reverse gene mutation, Ames assay, Assay Code: SAL+*, Activation: With metabolic activation, Evaluation Type: Evaluation A (Pre-1980)); “active; positive” under setting [14]. The call under setting [7] is “active; positive”.
